Reference: US7728128B2, “Dibenzo[c,h][1,5]naphthyridines and their use as DNA probes” (Institut National de la Sante et de la Recherche Medicate …, priority 2006, dated 2010)
Where “and” joins values, the source holds several entries; their conditions need not be identical. Equal values may be shown once.

Assays:
plasmid DNA = assay: absorption of free molecules before and after addition of plasmid DNA; format: physicochemical; set-up: Absorption maxima free dye / Absorption maxima DNA bound dye: unit not given here
Description: Plasmid dsDNA was purified using a Qiagen Maxiprep kit and used in the supercoiled form for absorption and fluorescence studies. E. coli total RNA was bought from Ambion, dA/dT and dG/dC homopolymers were purchased from Amersham Biosciences. Calf thymus (CT) high-molecular weight DNA and Hoechst 33258 were obtained from Sigma-Aldrich. Ethidium bromide was purchased from Amresco.
(§1) Spectrometry and fluorimetry were performed using a SpectraMax384 (Molecular Devices) and a Luminescence Spectrometer LS50B (Perkin Elmer). Fluorescence emission of compound I in complex with DNA and RNA was measured in 50 mM Na phosphate buffer, pH 7.2 at room temperature. Before use, total E. coli RNA was heated to 100° C. for 1 min and immediately transferred on ice for 5 min before mixing with compound I solution. All measurements were carried out at room temperature (20-23° C.) in solutions protected from light and incubated for ˜10-15 min after dilution. The units of b/dye and bp/dye are defined as moles of RNA bases or DNA base pairs per mole of dye. Quantum yield was measured using quinine sulphate as standard as described in (Iupac Commission on Photochemistry, EPA Newsletter of November 1986, 21-29) using FLUOROMAX-3 Spex Spectrofluorometer (HORIBA) and UVIKON XL Spectrophotometer (SECOMAM).
Although compound I also stains mitotic chromosomes (FIG. 1D), theoretically it was possible that it binds specifically to DNA-associated proteins (for example histones) rather than to nucleic acids. To resolve this issue, the absorption and emission spectra of free compound I before and after addition of dsDNA were recorded. […] Molar extinction coefficient (EC) of free compound I at 391 nm was measured at 10,800 cm^−1 M^−1. In the presence of ds plasmid DNA the absorption peaks of compound I at 373 and 391 nm decreased, and a new peak appears with a maximum at 435 nm (FIG. 1E). An overlay of the absorption spectra in complex with dsDNA at different bp per dye ratios gives a single isosbestic point at 398 nm. Free compound I fluoresces around 438 nm (the exact position of the peak depends on the excitation wavelength). […] At the same time, a new peak evolves with a maximum around 484 nm (FIG. 1F). The exact maximum of fluorescence of compound I/DNA complexes varies insignificantly as a function of the dye/bp ratio and/or base pairs composition of the nucleic acids. […] The quantum yield for compound I (excited at 435 nm) at 5 μM in 50 mM Na-phosphate, pH 7.2, was determined to be 2.7% for free dye and 13.8% in admixture with 50 μM CT DNA.
To get a further insight into how the structural properties of compound I contribute to its binding to DNA, the inventors analysed fourteen structural analogues present in the compound library. Although several of these compounds are fluorescent in vivo, this property went undetected in the initial screen most likely due to the latency period before the appearance of the signal (see below). To evaluate the activity of compound I-like molecules three tests were used: (1) in vivo, the inventors incubated human fibroblasts in the presence of the molecules and scored nuclear fluorescence in the microscope; (2 and 3) in vitro, the inventors looked at the absorption and fluorescence of free molecules before and after addition of plasmid DNA. […] With the exception of compound I and analogues 8 and 12, accurate in vitro measurement of the fluorescence intensities was impossible because the emission peaks for the free molecules were too close to that for the DNA-bound dye. This affected the height of the dye/DNA peaks.

live mouse fibroblasts = assay: photoactivation of nuclear fluorescence in live cells (time-lapse video microscopy); format: cell-based; conditions: 5 μM, continuous illumination, Alexa488/FITC filter
Description: Compound I at 5 μM was added directly into the cell medium 10 min before observation in an inverted microscope Zeiss Axiovert 200M with a 100 W mercury lamp. Time lapse images were acquired using CoolSnap HQ (Photometrics, Inc.) black and white camera driven by the Metamorph software (Universal Imaging). All experiments were carried out using 40× or 63× (FIGS. 1C and D) oil immersion Apochromat Zeiss objectives. To measure the fluorescence intensities, an oval region was drawn inside of each nucleus using Metamorph software and integrated intensities (nuclear surface multiplied by the average pixel value) were logged for each image.
To quantify this effect, live mouse fibroblasts were incubated in the presence of 5 μM compound I and time-lapse video microscopy was used to film the cells. Nuclear fluorescence develops slowly in the nuclei of cells treated with compound I and illuminated continuously using a standard Alexa488/FITC filter set (475AF40, 535AF45) (FIG. 5A). Fluorescence peaked after 8 min of illumination and then started to fade (FIG. 5C), most likely reflecting the “bleaching” of compound I. The photoactivation concerned only the cells in the illuminated field, as nuclei of cells immediately outside of the illuminated field remained imperceptible (non-fluorescent). […]

CT DNA = assay: quantum yield, free dye and in admixture with CT DNA; format: physicochemical, calf
Description: as §1
Although compound I also stains mitotic chromosomes (FIG. 1D), theoretically it was possible that it binds specifically to DNA-associated proteins (for example histones) rather than to nucleic acids. To resolve this issue, the absorption and emission spectra of free compound I before and after addition of dsDNA were recorded. […] Molar extinction coefficient (EC) of free compound I at 391 nm was measured at 10,800 cm^−1 M^−1. […]

Absorption maxima DNA bound dye (plasmid DNA; after addition of plasmid DNA): 435 | isosbestic point of absorption spectra (plasmid DNA; complex with dsDNA at different bp per dye ratios): 398 nm | Molar extinction coefficient (EC) (plasmid DNA; free dye at 391 nm): 10,800 cm^−1 M^−1 | Absorption maxima free dye (plasmid DNA; free molecule, before addition of plasmid DNA): 394 | absorption maximum of new peak (plasmid DNA; in the presence of ds plasmid DNA): 435 nm | quantum yield (CT DNA; free dye, 5 μM, 50 mM Na-phosphate pH 7.2, excited at 435 nm): 2.7% | quantum yield (CT DNA; in admixture with 50 μM CT DNA, 5 μM dye, excited at 435 nm): 13.8%
Compound: COc1ccc2c(c1)c(C)nc1c3ccc(OC)cc3c(NCCCN(C)C)nc21 [Compound I, N′-(2,8-dimethoxy-12-methyl-dibenzo[c,h][1,5]naphthyridin-6-yl)-N,N-dimethyl-propane-1,3-diamine]
absorption maxima of free dye (plasmid DNA; free compound): 224 nm and 245 nm and 283 nm and 326 nm and 373 nm and 391 nm | illumination time to peak/plateau of nuclear fluorescence (live mouse fibroblasts): 8 min
